From patent US20020137676A1, “Selective treatment of endothelial somatostatin receptors” (priority 1998, published 2002)
Ends that are not written are not given here.

Assays:
Format in all cases: cell-based, human
ECV304 cells [1] = experiment: Actin cytoskeleton visualised with fluorescently labelled phalloidin; conditions: 10 nM, 37° C. for 30 min
Experimental: (§1) The cells were subsequently incubated at 37° C. for 30 min, fixed in 4% PFA for 5 min and washed in PBS. The actin cytoskeleton was visualized by incubating the cells with ALEXA-488 conjugated phalloidin (1:50, Molecular Probes Inc., Eugene, Oreg.) for 15 min at room temperature. Cells were screened using a Zeiss Axiophot microscope as previously described. Similar protocols were used to evaluate the effects SSTR1 selective ligands on endothelial cells.

ECV304 cells [2] = experiment: ECV304/Matrigel in vitro angiogenesis model (capillary-like tube formation); conditions: sub-micromolar and higher concentrations; ECV304 on Matrigel
Source text: In one aspect, the present invention utilises an established model system for assaying the effect of SSTR ligands on human angiogenesis. In one embodiment, the model system comprises the spontaneously transformed human umbilical vein endothelial cell line, ECV304, grown on a Matrigel substrate (Hughes, 1996, Experimental Cell Research 225:171-185). Matrigel is a solubilized basement membrane extract that promotes the differentiation of endothelial cells into capillary tube-like structures in vitro. It has been shown that cytoskeletal reorganization occurs when human umbilical vein endothelial cells undergo the morphological changes associated with neovascular tube formation on a Matrigel substrate (Grant et al., 1991, In Vitro Cell Dev. Biol. 27A(4):327-36.). […] This assay can also be used to identify […] ligands that stimulate the process of angiogenesis. […]
ECV304 cells (3.5×10^4 in 0.5 mL complete M199 medium) were placed onto 24-well plates that were pre-coated with 0.125 mL of Matrigel (Becton-Dickinson). […] After 24 hours, images of tube-formation were recorded on film. Images were converted into a digital format using a Hewlett-Packard ScanJet 4C/T scanner, the summed length of capillary-like tubes was quantified using Optimas 6.1 image analysis software (Optimas Corp.).

[3] = test system: Na/H exchanger on ECV304 cells; experiment: Intracellular pH imaging of the Na/H exchanger
ECV304 or HUVEC cells = experiment: Actin cytoskeleton effects of SSTR selective ligands on endothelial cells
Experimental: as §1

Row | Substance | actin stress fibres (ECV304 cells [1]) | lamellipodia at the plasma membrane (ECV304 cells [1]) | inhibition of neovascular growth (ECV304 cells [2]) | effect on Na/H exchanger [3] | actin stress fibres (ECV304 or HUVEC cells) | lamellipodia formation (ECV304 or HUVEC cells)
1 | Somatostatin-14 (AGCKNFFWKTFTSC; ends and bridges not checked; cysteine pairing not given here; UniProt P61278 103-116, looked up) [SS14, native 14 amino acid form of somatostatin, an endogenous cyclic peptide; agonist of all somatostatin receptor subtypes] | loss of long stress fibers | increase in the number and size of lamellipodia | significantly inhibit neovascular growth | inhibit | – | –
2 | des-AA^1,2,5 [DTrp^8,IAamp^9]SS [SSTR1 '499 agonist] | – | – | – | – | decrease in stress fibres | increase in lamellipodia formation
